# Experimental data: US20060111848A1, “Identification and use of cofactor independent phosphoglycerate mutase as a drug target for pathogenic organisms and treatment of the same” (New England Biolabs, Inc., priority 2003, published 2006)
# Key:
# iPGM = details: cited from earlier work
# B. malayi iPGM = target: T1, B. malayi iPGM (Brugia malayi, UniProt Q4VWF8); assay: PGM activity, spectrophotometric NADH-coupled assay, recombinant B. malayi iPGM; format: biochemical; details: recombinant enzyme
# T1 construct: The full-length iPGMs from C. elegans, B. malayi and Wolbachia were overexpressed in E. coli; His tag (C); made in house; host or cells: E. coli ER2566
# Method: (§1) The purified CeiPGM, WoliPGM and BmiPGM proteins described in Example 4 were assayed for PGM activity and found to be active. Activity was measured in forward and reverse directions using a standard spectrophotometric assay (White and Fothergill-Gilmore, European J. Biochem. 207:709-714 1992)) as outlined in FIG. 9. In the forward reaction (glycolytic), the conversion of 3-PG to 2-PG is measured, whereas in the reverse direction (gluconeogenic), the conversion of 2-PG to 3-PG is assayed. In both cases, PGM activity was determined indirectly by measuring the consumption of NADH, which is monitored at 340 nm. The amount of NADH being oxidized to NAD corresponds to the amount of enzyme product (2-PG in the forward direction or 3-PG in the reverse direction) yielded in the PGM reaction. Reactions were performed at 30° C. for 5 minutes with data collected at 10-second intervals using a Beckman DU 640 spectrophotometer. In the forward reaction, iPGM was added to 1 ml assay buffer (30 mM Tris-HCl pH 7.0, 5 mM MgSO4, 20 mM KCl, 0.15 mM NADH) containing 1 mM ADP, 10 mM 3-PGA (Sigma P8877, Sigma-Aldrich, St. Louis, Mo.), 2.5 U each of enolase (Sigma E6126, EC 4.2.1.11, Sigma-Aldrich, St. Louis, Mo.), pyruvate kinase (Sigma P7768, EC 2.7.1.40, Sigma-Aldrich, St. Louis, Mo.) and lactate dehydrogenase (Sigma L2518; EC 1.1.1.27, Sigma-Aldrich, St. Louis, Mo.). […]
# C. elegans iPGM = target: T2, C. elegans iPGM (Caenorhabditis elegans, UniProt G5EFZ1); assay: PGM activity, spectrophotometric NADH-coupled assay, recombinant C. elegans iPGM; format: biochemical; details: recombinant enzyme
# T2 construct: The full-length iPGMs from C. elegans, B. malayi and Wolbachia were overexpressed in E. coli; His tag (C); made in house; host or cells: E. coli ER2566
# T2 sequence (G5EFZ1 1-521 isoform G5EFZ1-2): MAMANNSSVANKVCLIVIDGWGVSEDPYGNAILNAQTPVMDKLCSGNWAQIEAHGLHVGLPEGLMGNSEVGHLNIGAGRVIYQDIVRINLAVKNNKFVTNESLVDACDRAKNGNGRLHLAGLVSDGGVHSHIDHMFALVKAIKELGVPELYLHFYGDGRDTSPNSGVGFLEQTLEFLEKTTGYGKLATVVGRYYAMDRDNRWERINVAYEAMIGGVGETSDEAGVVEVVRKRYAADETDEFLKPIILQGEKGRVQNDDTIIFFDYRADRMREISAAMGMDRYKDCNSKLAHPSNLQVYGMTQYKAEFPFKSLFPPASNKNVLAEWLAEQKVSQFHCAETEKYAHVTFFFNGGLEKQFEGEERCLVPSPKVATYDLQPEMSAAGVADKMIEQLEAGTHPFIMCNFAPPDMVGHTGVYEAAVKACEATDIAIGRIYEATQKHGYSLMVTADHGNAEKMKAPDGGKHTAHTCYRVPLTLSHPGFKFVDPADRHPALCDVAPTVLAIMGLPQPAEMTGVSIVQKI
# Method: as §1
# Wolbachia iPGM = assay: PGM activity, spectrophotometric NADH-coupled assay, recombinant Wolbachia iPGM; format: biochemical; details: recombinant enzyme
# Method: as §1
# dPGM = details: cited from earlier work
# T1 sequence (Q4VWF8 whole entry): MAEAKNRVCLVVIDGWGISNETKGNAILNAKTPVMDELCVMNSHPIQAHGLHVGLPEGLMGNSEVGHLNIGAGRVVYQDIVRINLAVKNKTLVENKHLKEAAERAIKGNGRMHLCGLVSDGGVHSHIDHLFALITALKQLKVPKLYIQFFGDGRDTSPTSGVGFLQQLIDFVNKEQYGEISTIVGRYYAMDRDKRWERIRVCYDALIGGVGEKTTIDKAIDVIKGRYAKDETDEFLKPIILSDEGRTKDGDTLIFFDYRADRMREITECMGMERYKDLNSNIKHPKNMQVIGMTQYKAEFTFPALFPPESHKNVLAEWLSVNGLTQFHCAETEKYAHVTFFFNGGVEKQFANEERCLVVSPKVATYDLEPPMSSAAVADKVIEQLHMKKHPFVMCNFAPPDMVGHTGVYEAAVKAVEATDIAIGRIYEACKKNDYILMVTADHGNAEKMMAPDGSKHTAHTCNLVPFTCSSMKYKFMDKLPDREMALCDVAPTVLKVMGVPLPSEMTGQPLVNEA
structure (smiles),measurement,setting,value
[O]=[V]([O-])([O-])[O-] [vanadate],effect on iPGM activity,iPGM,insensitive
same,inhibition of PGM activity,B. malayi iPGM,not inhibited
same,inhibition of PGM activity,C. elegans iPGM,not inhibited
same,inhibition of PGM activity,Wolbachia iPGM,not inhibited
same,effect on dPGM activity,dPGM,inhibited
